What all share (assay): biochemical
What all share (design): KINOMEscan scanMAX active site-directed competition binding assay, percent of control, 468 kinases
What all share (conditions): competition binding, percent of control

The target in experiment [1] is T1, JAK3(JH1domain-catalytic) (Homo sapiens, UniProt P52333).
T1 construct: JH1domain-catalytic
The method in brief:
(§1)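 KINOMEscan active site-directed competition binding assay against 468 human kinases with 100 μM S-carvone. Binding expressed as % of control, with 35% of control as the inhibition threshold.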

A further experiment has as its target TRPM6 (Homo sapiens, UniProt Q9BX84). In short, it runs like this: as §1
The target of another experiment is TGFBR1 (Homo sapiens, UniProt P36897). The method in brief: as §1
TGFBR1, sequence (P36897 whole entry): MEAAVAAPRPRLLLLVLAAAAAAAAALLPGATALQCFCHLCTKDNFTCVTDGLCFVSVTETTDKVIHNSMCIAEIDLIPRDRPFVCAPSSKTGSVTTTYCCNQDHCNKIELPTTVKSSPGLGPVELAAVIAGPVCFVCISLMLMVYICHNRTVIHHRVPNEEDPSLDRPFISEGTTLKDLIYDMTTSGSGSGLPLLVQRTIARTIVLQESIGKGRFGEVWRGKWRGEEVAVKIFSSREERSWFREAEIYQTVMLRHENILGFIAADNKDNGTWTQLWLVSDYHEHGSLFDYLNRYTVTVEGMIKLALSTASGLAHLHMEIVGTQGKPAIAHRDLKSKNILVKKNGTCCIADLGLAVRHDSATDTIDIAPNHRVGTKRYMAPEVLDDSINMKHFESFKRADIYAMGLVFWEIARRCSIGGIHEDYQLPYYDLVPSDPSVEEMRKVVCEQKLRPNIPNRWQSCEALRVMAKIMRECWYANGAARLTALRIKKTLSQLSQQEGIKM
In another experiment the target is AXL (Homo sapiens, UniProt P30530). In short, it runs like this:
as §1

The target in a further experiment is PIP5K1A (Homo sapiens, UniProt Q99755). In short, it runs like this: as §1
PIP5K1A, sequence (Q99755 whole entry): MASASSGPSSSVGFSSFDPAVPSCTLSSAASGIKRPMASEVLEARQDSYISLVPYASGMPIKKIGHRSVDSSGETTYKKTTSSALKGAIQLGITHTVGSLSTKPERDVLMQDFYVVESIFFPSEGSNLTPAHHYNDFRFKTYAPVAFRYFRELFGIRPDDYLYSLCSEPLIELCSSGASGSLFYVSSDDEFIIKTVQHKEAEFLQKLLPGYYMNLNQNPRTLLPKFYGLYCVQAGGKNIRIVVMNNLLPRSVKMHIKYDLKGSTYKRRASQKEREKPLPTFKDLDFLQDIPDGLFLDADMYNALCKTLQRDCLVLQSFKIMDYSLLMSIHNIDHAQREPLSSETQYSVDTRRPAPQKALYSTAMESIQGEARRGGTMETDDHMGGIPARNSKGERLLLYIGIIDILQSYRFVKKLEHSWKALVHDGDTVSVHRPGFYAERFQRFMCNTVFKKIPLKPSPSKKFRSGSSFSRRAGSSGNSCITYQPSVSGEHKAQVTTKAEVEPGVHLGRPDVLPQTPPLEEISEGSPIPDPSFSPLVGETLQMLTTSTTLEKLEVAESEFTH
The target of a further experiment is TAOK3 (Homo sapiens, UniProt Q9H2K8). The method in brief: as §1
The target of a further experiment is T2, MKK7 (Homo sapiens, UniProt O14733).
T2 construct: gene MAP2K7
In short, it runs like this: as §1

For another experiment, the target named is EGFR (Homo sapiens, UniProt P00533). The method in brief: as §1
EGFR, sequence (P00533 whole entry): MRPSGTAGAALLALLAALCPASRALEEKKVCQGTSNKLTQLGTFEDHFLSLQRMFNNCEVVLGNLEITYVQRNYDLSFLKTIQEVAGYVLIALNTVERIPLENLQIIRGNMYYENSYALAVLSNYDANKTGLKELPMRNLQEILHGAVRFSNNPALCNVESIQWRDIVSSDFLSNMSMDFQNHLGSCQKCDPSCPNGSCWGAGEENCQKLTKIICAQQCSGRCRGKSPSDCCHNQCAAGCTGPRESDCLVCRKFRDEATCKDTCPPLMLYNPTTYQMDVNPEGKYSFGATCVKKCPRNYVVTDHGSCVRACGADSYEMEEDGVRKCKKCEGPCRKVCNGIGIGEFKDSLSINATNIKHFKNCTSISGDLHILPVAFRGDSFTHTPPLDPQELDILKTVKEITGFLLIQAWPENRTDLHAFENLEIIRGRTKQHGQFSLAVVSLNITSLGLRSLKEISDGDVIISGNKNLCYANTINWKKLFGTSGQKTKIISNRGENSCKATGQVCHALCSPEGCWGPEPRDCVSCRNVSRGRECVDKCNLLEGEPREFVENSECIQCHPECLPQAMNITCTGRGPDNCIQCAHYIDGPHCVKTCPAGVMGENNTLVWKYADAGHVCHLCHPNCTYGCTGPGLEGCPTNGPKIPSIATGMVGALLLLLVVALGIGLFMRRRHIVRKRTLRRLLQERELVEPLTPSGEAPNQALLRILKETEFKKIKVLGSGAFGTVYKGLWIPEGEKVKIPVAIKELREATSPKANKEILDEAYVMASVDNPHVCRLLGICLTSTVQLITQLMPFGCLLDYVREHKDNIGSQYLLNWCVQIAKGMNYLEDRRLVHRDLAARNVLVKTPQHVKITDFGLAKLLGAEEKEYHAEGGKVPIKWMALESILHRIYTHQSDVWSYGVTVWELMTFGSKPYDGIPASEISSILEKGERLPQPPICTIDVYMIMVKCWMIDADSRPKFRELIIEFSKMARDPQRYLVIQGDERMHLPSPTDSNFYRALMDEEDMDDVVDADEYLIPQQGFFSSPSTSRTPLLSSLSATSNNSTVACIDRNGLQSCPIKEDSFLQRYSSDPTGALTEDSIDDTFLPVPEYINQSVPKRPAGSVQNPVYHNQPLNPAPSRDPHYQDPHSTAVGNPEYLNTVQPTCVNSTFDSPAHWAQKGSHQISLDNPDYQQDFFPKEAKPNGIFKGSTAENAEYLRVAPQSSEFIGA
Experiment [2] addresses T3, ABL1(H396P)-phosphorylated (Homo sapiens, UniProt P00519, H396P).
T3 construct: phosphorylated
In short, it runs like this: as §1

A further experiment deals with ROCK2 (Homo sapiens, UniProt O75116). In short, it runs like this: as §1
ROCK2, sequence (O75116 whole entry): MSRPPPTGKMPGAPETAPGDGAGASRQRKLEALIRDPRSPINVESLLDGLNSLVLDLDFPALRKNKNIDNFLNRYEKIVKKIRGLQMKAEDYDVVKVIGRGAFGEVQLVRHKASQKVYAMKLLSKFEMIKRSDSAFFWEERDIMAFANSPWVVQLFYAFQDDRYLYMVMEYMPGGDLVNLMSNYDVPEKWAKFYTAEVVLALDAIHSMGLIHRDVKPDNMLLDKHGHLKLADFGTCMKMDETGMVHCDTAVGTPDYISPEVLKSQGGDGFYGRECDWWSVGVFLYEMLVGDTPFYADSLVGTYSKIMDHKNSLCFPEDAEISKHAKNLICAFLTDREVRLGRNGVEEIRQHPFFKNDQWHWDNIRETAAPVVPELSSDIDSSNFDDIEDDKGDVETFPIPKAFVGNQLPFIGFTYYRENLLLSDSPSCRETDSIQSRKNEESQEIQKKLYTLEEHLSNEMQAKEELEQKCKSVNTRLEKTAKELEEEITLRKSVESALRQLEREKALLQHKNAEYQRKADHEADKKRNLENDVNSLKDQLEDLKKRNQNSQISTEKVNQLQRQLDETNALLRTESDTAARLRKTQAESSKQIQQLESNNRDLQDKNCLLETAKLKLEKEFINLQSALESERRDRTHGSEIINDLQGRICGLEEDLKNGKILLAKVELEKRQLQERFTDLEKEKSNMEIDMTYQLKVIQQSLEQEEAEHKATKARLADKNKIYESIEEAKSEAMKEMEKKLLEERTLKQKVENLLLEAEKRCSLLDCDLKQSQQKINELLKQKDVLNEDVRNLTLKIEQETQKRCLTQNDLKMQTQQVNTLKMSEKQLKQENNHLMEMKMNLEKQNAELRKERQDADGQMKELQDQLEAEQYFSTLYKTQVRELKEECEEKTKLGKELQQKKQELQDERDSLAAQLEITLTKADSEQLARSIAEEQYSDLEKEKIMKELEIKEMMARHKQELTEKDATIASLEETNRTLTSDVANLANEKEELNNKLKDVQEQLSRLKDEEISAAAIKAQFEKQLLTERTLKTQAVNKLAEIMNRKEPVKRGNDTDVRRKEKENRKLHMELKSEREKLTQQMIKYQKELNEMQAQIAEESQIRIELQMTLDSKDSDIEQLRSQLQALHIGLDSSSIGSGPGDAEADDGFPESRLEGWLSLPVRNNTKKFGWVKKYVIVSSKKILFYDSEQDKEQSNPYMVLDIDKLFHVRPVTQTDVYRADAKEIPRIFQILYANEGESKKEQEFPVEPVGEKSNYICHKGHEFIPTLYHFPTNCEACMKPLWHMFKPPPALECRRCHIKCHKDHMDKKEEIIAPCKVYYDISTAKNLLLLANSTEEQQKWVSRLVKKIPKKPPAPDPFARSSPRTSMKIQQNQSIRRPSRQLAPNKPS
A further experiment concerns the target CAMKK1 (Homo sapiens, UniProt Q8N5S9). In short, it runs like this:
as §1

The next experiment concerns the target T4, SNARK (Homo sapiens, UniProt Q9H093).
T4 construct: gene NUAK2
The method in brief: as §1

Another experiment addresses AURKB (Homo sapiens, UniProt Q96GD4). In short, it runs like this: as §1
A further experiment concerns the target ACVR2B (Homo sapiens, UniProt Q13705). In short, it runs like this:
as §1

For another experiment, the target named is PIK3CA(E545K) (Homo sapiens, UniProt P42336, E545K). In short, it runs like this: as §1
In the next experiment the target is PIM1 (Homo sapiens, UniProt P11309). In short, it runs like this:
as §1

For the next experiment, the target named is T5, YANK3 (Homo sapiens, UniProt Q86UX6).
T5 construct: gene STK32C
T5 sequence (Q86UX6 whole entry): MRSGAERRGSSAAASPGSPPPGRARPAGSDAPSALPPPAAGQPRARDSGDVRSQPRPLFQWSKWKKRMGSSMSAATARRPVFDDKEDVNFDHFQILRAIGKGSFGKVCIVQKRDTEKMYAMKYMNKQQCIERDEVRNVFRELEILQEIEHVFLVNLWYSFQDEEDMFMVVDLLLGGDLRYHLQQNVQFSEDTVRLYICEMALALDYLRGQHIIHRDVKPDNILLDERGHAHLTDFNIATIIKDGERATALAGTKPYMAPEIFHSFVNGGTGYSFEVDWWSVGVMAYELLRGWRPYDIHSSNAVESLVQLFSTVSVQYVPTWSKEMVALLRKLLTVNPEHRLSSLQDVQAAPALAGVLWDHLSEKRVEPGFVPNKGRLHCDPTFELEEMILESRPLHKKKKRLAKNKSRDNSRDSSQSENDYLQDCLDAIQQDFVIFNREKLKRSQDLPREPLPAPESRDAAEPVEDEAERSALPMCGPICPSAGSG
The method in brief:
as §1

In the next experiment the target is BTK (Homo sapiens, UniProt Q06187). The method in brief: as §1
Experiment [3] has as its target T6, ABL1(F317L)-phosphorylated (Homo sapiens, UniProt P00519, F317L).
T6 construct: phosphorylated
The method in brief: as §1

In another experiment the target is T7, ABL1-phosphorylated (Homo sapiens, UniProt P00519).
T7 construct: phosphorylated
In short, it runs like this:
as §1

The target of the next experiment is FLT1 (Homo sapiens, UniProt P17948). In short, it runs like this:
as §1

A further experiment has as its target HCK (Homo sapiens, UniProt P08631). The method in brief: as §1

SMILES strings stand for the structures.

AURKB, sequence (Q96GD4 whole entry): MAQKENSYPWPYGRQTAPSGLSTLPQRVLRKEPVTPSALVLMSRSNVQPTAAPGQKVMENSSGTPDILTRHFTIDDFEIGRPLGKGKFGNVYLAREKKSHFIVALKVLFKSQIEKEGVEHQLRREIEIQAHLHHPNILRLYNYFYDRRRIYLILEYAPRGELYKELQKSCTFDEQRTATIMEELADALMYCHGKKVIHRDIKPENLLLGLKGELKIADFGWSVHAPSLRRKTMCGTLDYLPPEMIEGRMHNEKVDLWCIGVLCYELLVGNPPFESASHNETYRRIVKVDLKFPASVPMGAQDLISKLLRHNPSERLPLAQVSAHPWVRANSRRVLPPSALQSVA
PIM1, sequence (P11309 whole entry): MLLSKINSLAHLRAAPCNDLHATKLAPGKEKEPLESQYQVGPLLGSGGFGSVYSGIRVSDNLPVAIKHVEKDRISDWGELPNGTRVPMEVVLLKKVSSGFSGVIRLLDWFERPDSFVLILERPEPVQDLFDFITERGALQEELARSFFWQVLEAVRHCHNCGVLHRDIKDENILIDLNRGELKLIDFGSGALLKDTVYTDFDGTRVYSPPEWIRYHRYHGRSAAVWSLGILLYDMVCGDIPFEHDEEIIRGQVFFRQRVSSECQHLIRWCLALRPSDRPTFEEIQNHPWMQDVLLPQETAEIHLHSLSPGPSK

In the case of `C=C(C)[C@H]1CC=C(C)C(=O)C1` [S-carvone], the remaining binding at 100 µM in [1] was 90%; on TRPM6, 87%; on TGFBR1, 100%; at AXL, 82%; on PIP5K1A it was 98%; at TAOK3 it was 73%. For the same compound, the remaining binding at 100 µM on MKK7 is 67%; on EGFR, 79%; in [2] it was 65%; at ROCK2, 66%; at CAMKK1, 94%; on SNARK, 81%. The remaining binding at 100 µM was found to be 68% at AURKB; 75% at ACVR2B; 63% at PIK3CA(E545K); 77% on PIM1; 91% at YANK3; 70% at BTK. The remaining binding at 100 µM in [3] came out at 93%; on ABL1-phosphorylated it was 73%; at FLT1 it was 91%; at HCK, 76%.

The values are drawn from PMC10174618, “Monoterpenoid aryl hydrocarbon receptor allosteric antagonists protect against ultraviolet skin damage in female mice” (Nature Communications, 2023).
